Results from patent publication US20150125542A1, “TIE2 Activator, Vascular Endothelial Growth Factor (VEGF) Inhibitor, Angiogenesis Inhibitor, Vascular Maturing Agent, Vascular Normalizing Agent and Vascular Stabilizing Agent, and Pharmaceutical Composition” (Maruzen Pharmaceuticals Co., Ltd., priority 2010, published 2015).

Key:
[1] = test system: human normal umbilical vein vascular endothelial cells co-cultured with human normal dermal fibroblasts; assay: Angiogenesis inhibitory effect test (angiogenesis kit, number of luminal branching, VEGF-A); assay type: cell-based; conditions: VEGF-A (+) 10 ng/mL
Procedure: The pharmacological effect, i.e., angiogenesis inhibitory effect of the hawthorn extract was evaluated by measuring a decrease of the number of vascular branching by means of image analysis as follows. At first, human normal umbilical vein vascular endothelial cells were co-cultured with human normal dermal fibroblasts at a constant ratio using the angiogenesis kit (product of KURABO INDUSTRIES LTD.) to a proliferative state at the early stage of lumen formation. The test sample, the hawthorn extract (fruits) (HAWTHORN EXTRACT POWDER MF, product of MARUZEN PHARMACEUTICALS CO., LTD.), was added to media so as to have concentrations described in Table 2 in the presence of 10 ng/mL of vascular endothelial cell growth factor-A (VEGF-A) (product of KURABO INDUSTRIES LTD.), followed by incubation at 37° C. and 5% CO2. […] The CD31 (PECAM-1) in HUVEC cells was stained with the lumen staining kit (CD31, product of KURABO INDUSTRIES LTD.) The stained cells in the wells were photographed and counted for the number of luminal branching. Based on the thus-obtained number of luminal branching, the angiogenesis inhibitory effect was evaluated.

[2] = molecular target: T1, Tie2 (Homo sapiens, UniProt Q02763); assay: Tie2 activating effect (immunoassay) test in HUVECs; assay type: cell-based
T1 construct: endogenous in cells; host or cells: HUVEC (human umbilical vein endothelial cells)
Procedure: The pharmacological effect of the hawthorn extract was evaluated by detecting the amount of phosphorylated Tie2 protein. The phosphorylated Tie2 protein was quantified by means of an immunochemical method including an immunoassay. The method was performed as follows.
At first, normal human umbilical vein endothelial cells (HUVECs) were cultured to confluent, inoculated into a 96-well plate at 2.0×10^4 cells/0.1 mL/well, and then cultured over night in a low-serum growth medium for vascular endothelial cells (HUMEDIA-EG2, product of KURABO INDUSTRIES LTD.) Next, the low-serum growth medium was replaced by 0.1 mL of a basal medium for vascular endothelial cells (HUMEDIA-EB2, product of KURABO INDUSTRIES LTD.) at 3 hours before cell stimulation (addition of test samples), and the post-cultured HUVECs were again cultured therein. […] After completion of the incubation, the amount of phosphorylated Tie2 and the total amount of Tie2 in the cells were measured by the immunoassay kit (HUMAN PHOSPHO-TIE2 (Y992) IMMUNOASSAY, product of R&D Systems) according to a manufacturer's protocol to thereby calculate the ratio of the amount of phosphorylated Tie2 to the total amount of Tie2.
Similarly, the ratio of the amount of phosphorylated Tie2 to the total amount of Tie2 was calculated in the case of using dimethyl sulfoxide (DMSO) as a negative control. […]

T1 sequence (Q02763 23-1124): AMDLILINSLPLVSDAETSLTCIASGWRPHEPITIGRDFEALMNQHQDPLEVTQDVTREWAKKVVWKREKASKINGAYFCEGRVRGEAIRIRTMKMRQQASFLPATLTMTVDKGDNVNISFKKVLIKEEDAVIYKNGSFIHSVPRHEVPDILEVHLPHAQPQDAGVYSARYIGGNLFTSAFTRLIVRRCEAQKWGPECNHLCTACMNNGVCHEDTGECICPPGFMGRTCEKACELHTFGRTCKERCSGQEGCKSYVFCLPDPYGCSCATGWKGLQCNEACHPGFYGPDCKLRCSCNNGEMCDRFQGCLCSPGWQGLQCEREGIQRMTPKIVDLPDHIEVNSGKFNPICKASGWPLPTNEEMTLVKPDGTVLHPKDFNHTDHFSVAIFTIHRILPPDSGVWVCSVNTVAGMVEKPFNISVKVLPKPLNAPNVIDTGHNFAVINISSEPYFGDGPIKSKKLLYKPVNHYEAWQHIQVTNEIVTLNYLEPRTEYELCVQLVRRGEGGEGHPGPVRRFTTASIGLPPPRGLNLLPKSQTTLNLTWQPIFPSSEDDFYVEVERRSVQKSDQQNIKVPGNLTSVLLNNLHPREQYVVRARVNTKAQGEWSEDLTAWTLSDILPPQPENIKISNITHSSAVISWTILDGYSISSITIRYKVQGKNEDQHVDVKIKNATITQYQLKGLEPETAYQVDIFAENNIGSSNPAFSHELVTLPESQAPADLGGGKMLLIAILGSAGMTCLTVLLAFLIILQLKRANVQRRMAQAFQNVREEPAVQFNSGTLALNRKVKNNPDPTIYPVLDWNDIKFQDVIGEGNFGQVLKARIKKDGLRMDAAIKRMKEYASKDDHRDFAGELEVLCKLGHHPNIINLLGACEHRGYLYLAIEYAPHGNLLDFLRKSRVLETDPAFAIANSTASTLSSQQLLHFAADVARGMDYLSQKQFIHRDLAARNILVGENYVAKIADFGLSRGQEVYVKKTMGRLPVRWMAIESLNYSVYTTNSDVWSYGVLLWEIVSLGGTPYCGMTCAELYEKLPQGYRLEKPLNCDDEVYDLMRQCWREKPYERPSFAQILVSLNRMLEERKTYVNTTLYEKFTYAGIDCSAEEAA

Activation rate of Tie2 (%) ([2]; 0.5 μg/mL, 10 min, negative control DMSO = 100, Means ± S.E., n = 4)	Molecule	Number of vascular branching ([1]; 50 μM, Means ± S.E., n = 3)	inhibition at 50 µM ([1]; Homo sapiens, read-out: Angiogenesis inhibitory rate (%))	Tie2 activating effect (immunoassay), in words ([2]; immunoassay kit)
–	Cc1ccc(C(=O)Nc2ccc(S(=O)(=O)O)c3cc(S(=O)(=O)O)cc(S(=O)(=O)O)c23)cc1NC(=O)c1cccc(NC(=O)Nc2cccc(C(=O)Nc3cc(C(=O)Nc4ccc(S(=O)(=O)O)c5cc(S(=O)(=O)O)cc(S(=O)(=O)O)c45)ccc3C)c2)c1 [Suramin]	30.0 ± 4.0	70.8%	–
130.2 ± 8.3 %	Angiopoietin-1: Angiopoietin-1 (product of R&D Systems, Inc.) as a positive control (protein, UniProt Q15389 16-498, looked up) Angiopoietin-1: HIGCSNQRRSPENSGRRYNRIQHGQCAYTFILPEHDGNCRESTTDQYNTNALQRDAPHVEPDFSSQKLQHLEHVMENYTQWLQKLENYIVENMKSEMAQIQQNAVQNHTATMLEIGTSLLSQTAEQTRKLTDVETQVLNQTSRLEIQLLENSLSTYKLEKQLLQQTNEILKIHEKNSLLEHKILEMEGKHKEELDTLKEEKENLQGLVTRQTYIIQELEKQLNRATTNNSVLQKQQLELMDTVHNLVNLCTKEGVLLKGGKREEEKPFRDCADVYQAGFNKSGIYTIYINNMPEPKKVFCNMDVNGGGWTVIQHREDGSLDFQRGWKEYKMGFGNPSGEYWLGNEFIFAITSQRQYMLRIELMDWEGNRAYSQYDRFHIGNEKQNYRLYLKGHTGTAGKQSSLILHGADFSTKDADNDNCMCKCALMLTGGWWFDACGPSNLNGMFYTAGQNHGKLNGIKWHYFKGPSYSLRSTTMMIRPLDF	–	–	verified to be phosphorylated and thus activated
